# According to patent US8889840B2, “Vascular leakage inhibitor” (Industry-Academic Cooperation Foundation, Yonsei University, priority 2009, dated 2014):
# Legend:
# Type in all cases: cell-based, human
# HUVECs = experiment: VEGF-induced actin stress fibers in HUVECs, rhodamine phalloidin staining; conditions: 10 μg/mL pretreatment 1 hour, 20 ng/mL VEGF
# Procedure: Confluent HUVECs were pretreated with the compounds (10 μg/mL) for 60 minutes before treating with 20 ng/mL VEGF (1 hr). The cells were then stained with rhodamine phalloidin.
# It is known that the change in the actin structure of the cytoskeleton is closely related with the permeability of vascular endothelial cells. Increased permeability of vascular endothelial cells leads to increased formation of actin stress fibers and decrease of cortical actin ring structures. Based on this, the ability of inhibiting vascular endothelial permeability of the synthesized Rk1 derivatives was screened. Confluent HUVECs were pretreated with the synthesized compounds (10 μg/mL) for 1 hour before treating with 20 ng/mL VEGF (Upstate Biotechnology). Subsequently, the cells were fixed with 4% paraformaldehyde for 20 minutes at room temperature and washed 3 times with PBS (pH 7.4). Then, the cells were permeabilized with 0.1% Triton X-100/PBS and reacted with 0.1 mg/mL rhodamine phalloidin (Molecular Probes) for 1 hour. Then, the cells were observed under a fluorescence microscope (Olympus).
# HRECs [1] = experiment: DNA fragmentation in serum-depleted HRECs; conditions: serum-free medium, 0.1-10 μg/mL, 48 hours
# Procedure: HRECs (3×10^4 cells/well) were seeded on a 24-well plate in M199 medium containing 20% fetal bovine serum. The next day, the cells were transferred to a medium containing 0.1-10 μg/mL Sac0601 (FIG. 6a) or 0.1-10 μg/mL Sac0504 (FIG. 6b). DNA fragmentation was analyzed by TUNEL assay 48 hours later.
# In addition, chromosomal fragmentation and nicking characteristic of apoptosis were monitored, HRECs (3×10^4 cells/well) were seeded on a 24-well plate in M199 medium (1 mL) containing 20% fetal bovine serum, Next day, the cells were transferred to serum-free M199 medium containing 0.1-10 μg/mL Sac0601 (FIG. 6a) or 0.1-10 μg/mL Sac0504 (FIG. 6b). 48 hours later, the cells were washed twice with PBS, fixed with 2% paraformaldehyde, and washed twice with PBS again, After adding 4′,6-diamidino-2-phenylindole-2HCl (DAPI; Calbiochem, USA) solution and reacting for 30 minutes in the dark, the cells were washed twice with PBS and degree of DNA fragmentation was observed under an optical microscope after covering with a cover glass.
# HRECs [2] = experiment: VEGF-induced actin stress fibers in HRECs, rhodamine phalloidin staining; conditions: 10 μg/mL 1 hour, then 20 ng/mL VEGF 1 hour
# Procedure: Confluent HRECs were treated with 10 μg/mL Sac0601 or Sac0504 for 1 hour and then with 20 ng/mL VEGF for 1 hour. Subsequently, the cells were fixed at room temperature for 20 minutes with 4% paraformaldehyde and washed 3 times with PBS (pH 7.4). Then, the cells were permeabilized with 0.1% Triton X-100/PBS and reacted with 0.1 mg/mL rhodamine phalloidin (Molecular Probes) for 1 hour. Then, the cells were observed under a fluorescence microscope (Olympus). […] The analysis of actin cytoskeleton was conducted also for the compounds synthesized in Synthesis Example 5. Both Sac0904 and Sac0902 exerted effects in a concentration-dependent manner on the actin cytoskeleton which is closely related with vascular permeability (FIG. 7c).
# HRECs [3] = experiment: Stability of tight junctions (TJs) at cell-cell contacts in VEGF-treated HRECs, anti-occludin immunostaining; conditions: 10 μg/mL 1 hour, then 20 ng/mL VEGF 1 hour
# Procedure: In FIG. 8a, confluent HRECs were pretreated with Sac0601 (panel A in FIG. 8a) or Sac0504 (panel B in FIG. 8a) for 60 minutes before treating with 20 ng/ml. VEGF (1 hr). The cells were then stained with occludin antibody.
# Confluent HRECs were treated with 10 μg/mL Sac0601 (FIG. 8a, panel A) or Sac0504 (FIG. 8a, panel B) for 1 hour and then with 20 ng/mL. VEGF for 1 hour. Subsequently, the cells were fixed at room temperature for 20 minutes with 4% paraformaldehyde and permeabilized with 0:1% Triton X-100/PBS. Then, the cells were incubated in PBS blocking solution containing 5% normal goat serum and 0.05% Tween-20. The cells were then reacted with anti-occludin antibody (Zymed Laboratories Inc.). The result was visualized with fluorescein-conjugated anti-mouse antibody (Vector Lab.). Also, western blotting was conducted for the cell lysate. The cell lysate was fractionated with SDS-PAGE and then transferred to polyvinyl difluoride membrane. The blocked membrane was reacted with anti-occludin antibody (Zymed Laboratories Inc.) and the immune response band was visualized with the chemiluminescence reagent obtained from Amersham Biosciences, Inc.
# HRECs [4] = experiment: Restoration of TJ instability and cytoskeleton change induced by VEGF in HRECs; conditions: 20 ng/mL VEGF 1 hour, then 10 μg/mL 1 hour
# Procedure: In FIGS. 9a-9b, confluent HRECs were stimulated with 20 ng/mL VEGF (1 hr) before treating with Sac0504 and Sac0601. The cells were then stained with anti-occludin antibody (FIG. 9a) and rhodamine phalloidin (FIG. 9b).
# Confluent HRECs were treated with 20 ng/mL. VEGF for 1 hour and then with 10 μg/mL Sac0601 or Sac0504 for 1 hour. Subsequently, the cells were stained with anti-occludin antibody (FIG. 9a) or […] (FIG. 9b) as described above.
# HRECs [5] = experiment: Permeability of HRECs on transwell filter, labelled sucrose; conditions: 10 μg/mL 60 minutes, with or without 20 ng/mL VEGF
# Procedure: HRECs were seeded on a transwell filter. After reaching confluency, the cells were pretreated with Sac0601 (FIG. 10a) and Sac0504 (FIG. 10b) for 60 minutes before treating with 20 ng/ml. VEGF (1 hr). The permeability of HRECs was determined by measuring radiation of […] (1 μCi/μL) diffused below the transwell using a liquid scintillation counter.
# The effect of Sac0601 and Sac0504 on vascular permeability was analyzed. HRECs were seeded on a transwell filter (Corning Costar). After reaching confluency, the cells were cultured in M199 medium containing 1% FBS for 3 hours and treated with 10 μg/mL. Sac0601 (FIG. 10a) or Sac0504 (FIG. 10b) for 60 minutes, with or without pretreatment with 20 ng/mL VEGF for 60 minutes. Then, [^3H]sucrose (1 μCi [0.037 MBq.]/μL or 50 μL (0.8 μCi [0.0296 MBq])/mL, Amersham Pharmacia) were added. 30 minutes later, radiation diffused below the transwell was measured using a liquid scintillation counter (Wallac, PerkinElmer). Measurement was made at least four locations.
SMILES,cortical actin ring structure (HUVECs),formation of actin stress fibers induced by VEGF (HUVECs),DNA fragmentation (HRECs [1]),formation of actin stress fibers induced by VEGF (HRECs [2]),formation of cortical actin ring structures (HRECs [2]),redistribution of TJs into the cytoplasm or destabilizing at the cell membrane induced by VEGF (HRECs [3]),stability of TJs between cells (HRECs [3]),change in actin structure and TJ stability at the cell-cell contacts induced by VEGF (HRECs [4]),permeability of the vascular endothelial cells (HRECs [5])
CC(C)CCC[C@@H](C)[C@H]1CC[C@H]2[C@@H]3CC=C4C[C@@H](OC5CCCCO5)CC[C@]4(C)[C@H]3CC[C@]12C (stereo partly drawn) [Sac0504],increased the cortical actin ring structure,inhibited the formation of actin stress fibers induced by VEGF,inhibit DNA fragmentation,inhibited the formation of actin stress fibers induced by VEGF,increased the formation of cortical actin ring structures,could be inhibited,enhanced,can be restored,inhibiting permeability of the vascular endothelial cells
CC(=O)OCC1OC(OC2CCC3(C)C(=CCC4C3CCC3(C)C(C(C)CCCC(C)C)CCC43)C2)C=CC1OC(C)=O (stereo not drawn) [Sac0601],increased the cortical actin ring structure,inhibited the formation of actin stress fibers induced by VEGF,inhibit DNA fragmentation,inhibited the formation of actin stress fibers induced by VEGF,increased the formation of cortical actin ring structures,could be inhibited,more effective in enhancing the stability of TJs than Sac0504,can be restored,inhibiting permeability of the vascular endothelial cells
